Source: patent publication US6440948B1, “Thiophene A2A receptor agonists” (CV Therapeutics, Inc., priority 1999, dated 2002)

Molecular target: T1, A2A receptor (Sus scrofa, UniProt K9IW67)
T1 construct: from tissue; host or cells: pig striatum membranes
Assay: affinity for the A2A receptor in a pig striatum membrane prep (displacement of tritiated ZM 241385)
Type: binding
Conditions: pig striatal membranes, 2 nM tritiated antagonist ZM 241385, 23° C. for 2h, greater than 5 point curve
Method: Compounds of this invention were assayed to determine their affinity for the A2A receptor in a pig striatum membrane prep. Briefly, 0.2 mg of pig striatal membranes were treated with adenosine deaminase (2 U/mL) and 50 mM Tris buffer (pH=7,4) followed by mixing. To the pig membranes was added […] of serially diluted DMSO stock solution of the compounds of this invention at concentrations ranging from 10 nM to 100 μM or the control received […] of DMSO alone, then the: antagonist ZM 241385 in Tris buffer (50 mM, pH of 7.4) was added to achieve a final concentration of 2 nM . After incubation at 23° C. for 2h, then the solutions were filtered using a membrane harvester using multiple washing of the membranes (3x). The filter disks were counted in scintillation cocktail to determine the amount of displacement of tritiated ZM displaced by the compounds of this invention. Greater than a 5 point curve was used to generate Ki's. Compound 13 has a Ki between 1,000 and 10,000 nM.

T1 sequence (K9IW67 1-409): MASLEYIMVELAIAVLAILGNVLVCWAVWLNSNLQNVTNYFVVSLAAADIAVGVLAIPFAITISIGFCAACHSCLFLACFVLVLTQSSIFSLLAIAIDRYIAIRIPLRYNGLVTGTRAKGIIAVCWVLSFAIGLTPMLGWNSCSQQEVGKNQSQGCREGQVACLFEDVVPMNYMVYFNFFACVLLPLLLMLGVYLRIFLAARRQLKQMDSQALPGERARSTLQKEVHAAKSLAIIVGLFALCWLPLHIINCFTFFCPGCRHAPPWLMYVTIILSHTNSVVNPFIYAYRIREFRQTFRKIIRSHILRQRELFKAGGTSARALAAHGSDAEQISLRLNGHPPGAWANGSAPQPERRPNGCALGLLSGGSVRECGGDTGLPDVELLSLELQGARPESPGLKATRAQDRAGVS

Ki: 1 to 10 µM
Compound: Cc1ccc(-c2nc(N)c3ncn([C@@H]4O[C@H](CO)[C@@H](O)[C@H]4O)c3n2)s1 [Compound 13, (4S,2R,3R,5R)-2-[6-Amino-2-(5-methyl(2-thienyl))purin-9-yl]-5-(hydroxymethyl)oxolane-3,4-diol]
